Assay results: ChEMBL document CHEMBL5308504, “Tm Shift (DSF) assay results for EUbOPEN Chemogenomics Library” (2023)
Values joined by “and” are separate entries in the source; they are usually repeats but may differ in a detail not shown here. Equal entries are not always repeated.

Columns and labels:
[1] = target: Fibroblast growth factor receptor 3 (Homo sapiens) (UniProt P22607); conditions: Compound concentration 20.0 uM, Protein concentration 2.0 uM, Result type QC Liability
Description: Thermal Shift Assay. Domain: start/stop: P449-E759

Peregrin (Homo sapiens) = target: T1, Peregrin (Homo sapiens) (UniProt P55201); conditions: Compound concentration 20.0 uM, Protein concentration 2.0 uM, Result type QC Liability
T1 sequence (whole entry): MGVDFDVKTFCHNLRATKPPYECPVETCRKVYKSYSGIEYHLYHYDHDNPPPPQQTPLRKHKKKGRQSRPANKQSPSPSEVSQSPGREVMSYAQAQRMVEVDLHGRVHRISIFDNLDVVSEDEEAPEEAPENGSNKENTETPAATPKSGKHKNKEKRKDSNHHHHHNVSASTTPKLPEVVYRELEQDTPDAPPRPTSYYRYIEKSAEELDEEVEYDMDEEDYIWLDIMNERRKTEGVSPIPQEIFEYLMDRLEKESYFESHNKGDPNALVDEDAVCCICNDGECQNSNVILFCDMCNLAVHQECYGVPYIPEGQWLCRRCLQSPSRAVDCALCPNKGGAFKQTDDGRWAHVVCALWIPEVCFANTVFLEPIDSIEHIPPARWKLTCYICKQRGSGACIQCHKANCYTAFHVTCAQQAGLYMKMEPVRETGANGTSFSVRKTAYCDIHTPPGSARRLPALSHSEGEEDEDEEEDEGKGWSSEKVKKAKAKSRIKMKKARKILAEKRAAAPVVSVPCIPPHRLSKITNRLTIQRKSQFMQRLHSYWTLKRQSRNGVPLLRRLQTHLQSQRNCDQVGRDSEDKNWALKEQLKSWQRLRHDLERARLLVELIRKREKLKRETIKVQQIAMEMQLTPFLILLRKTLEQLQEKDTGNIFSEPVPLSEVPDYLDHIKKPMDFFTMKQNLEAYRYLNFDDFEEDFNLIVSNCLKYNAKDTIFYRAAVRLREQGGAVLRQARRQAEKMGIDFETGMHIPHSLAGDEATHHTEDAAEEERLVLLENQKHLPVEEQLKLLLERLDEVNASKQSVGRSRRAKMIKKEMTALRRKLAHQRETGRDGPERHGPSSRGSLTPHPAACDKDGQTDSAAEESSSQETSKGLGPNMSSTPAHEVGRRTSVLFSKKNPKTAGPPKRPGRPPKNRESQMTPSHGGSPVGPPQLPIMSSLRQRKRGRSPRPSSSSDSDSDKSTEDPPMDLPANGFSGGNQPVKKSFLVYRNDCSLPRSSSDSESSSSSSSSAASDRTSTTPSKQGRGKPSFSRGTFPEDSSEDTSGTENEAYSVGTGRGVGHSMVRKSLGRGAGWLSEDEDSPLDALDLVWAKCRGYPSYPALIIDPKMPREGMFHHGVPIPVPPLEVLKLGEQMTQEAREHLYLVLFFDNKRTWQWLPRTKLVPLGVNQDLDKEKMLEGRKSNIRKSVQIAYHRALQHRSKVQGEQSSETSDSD

Sequence of Fibroblast growth factor receptor 3 (Homo sapiens) (P22607 23-806 limits assumed): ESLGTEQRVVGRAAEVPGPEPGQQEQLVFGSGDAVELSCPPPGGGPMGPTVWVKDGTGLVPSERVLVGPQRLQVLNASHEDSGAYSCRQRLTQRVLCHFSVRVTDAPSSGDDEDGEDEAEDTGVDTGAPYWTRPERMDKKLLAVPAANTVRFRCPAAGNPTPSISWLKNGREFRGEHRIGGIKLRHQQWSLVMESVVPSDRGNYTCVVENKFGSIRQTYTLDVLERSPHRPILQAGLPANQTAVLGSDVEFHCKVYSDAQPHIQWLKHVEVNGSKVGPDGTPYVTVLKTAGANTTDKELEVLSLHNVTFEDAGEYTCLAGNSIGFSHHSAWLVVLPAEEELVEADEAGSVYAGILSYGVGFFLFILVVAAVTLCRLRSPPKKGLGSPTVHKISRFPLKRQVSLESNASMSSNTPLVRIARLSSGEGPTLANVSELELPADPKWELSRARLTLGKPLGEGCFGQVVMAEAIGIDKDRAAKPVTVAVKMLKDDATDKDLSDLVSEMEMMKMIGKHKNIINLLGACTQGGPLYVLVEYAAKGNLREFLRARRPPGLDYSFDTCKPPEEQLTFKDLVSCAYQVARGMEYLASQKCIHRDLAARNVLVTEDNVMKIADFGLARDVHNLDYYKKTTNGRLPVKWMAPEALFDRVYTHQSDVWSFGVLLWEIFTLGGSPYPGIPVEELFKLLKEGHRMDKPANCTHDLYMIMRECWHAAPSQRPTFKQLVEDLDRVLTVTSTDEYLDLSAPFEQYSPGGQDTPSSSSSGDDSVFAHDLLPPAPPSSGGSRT

Structure (SMILES)	ΔTm [1]	ΔTm (Peregrin (Homo sapiens))
CC(C)NC(=O)[C@H]1CCC[C@H]1Nc1nc(Nc2ccc(C(=O)N(C)C3CCN(C)CC3)cc2)ncc1Cl	6.71 °C and 5.98 °C	-1.64 °C and -0.91 °C
CC(C)c1nc2c(c3c1[C@H](c1ccc(C(F)(F)F)cc1)OC31CCOCC1)[C@H](O)CC(C)(C)C2	0.52 °C	-3.09 °C
O=c1[nH]c(CS[C@H]2CC[C@H](O)CC2)nc2cc(OCC3CC3)cc(F)c12	0.65 °C	-0.45 °C
C[C@]12CC[C@@H]3c4ccc(C(N)=O)cc4CC[C@H]3[C@@H]1CC=C2c1cncc(F)c1	0.92 °C	-4.27 °C
COc1cc2ncnc(Nc3ccc(F)c(Cl)c3)c2cc1OCCN(C)C[C@H](C)O	1.03 °C	-1.85 °C
Cc1nc(-c2ccc(C(F)(F)F)cc2)sc1C(=O)NCc1ccc(OC(C)(C)C(=O)O)cc1	0.71 °C	-1.41 °C
C[C@H](CCC(=O)O)[C@H]1CC[C@H]2[C@@H]3[C@@H](O)C[C@@H]4C[C@H](O)CC[C@]4(C)[C@H]3CC[C@]12C	0.96 °C	-1.31 °C
O=C(Nc1ccc(C(O)(C(F)(F)F)C(F)(F)F)cc1)c1ccc(C(F)(F)F)cc1	2.93 °C	0.72 °C
CCCCC/C=C/C=C1/C(=O)C=C[C@@H]1C/C=C\CCCC(=O)O	0.72 °C	-3.72 °C
CCCCC[C@H](O)/C=C/[C@H]1[C@H](O)CC(=O)[C@@H]1CCCCCCC(=O)O	0.41 °C	-2.24 °C
CCC(=O)O[C@@H](OP(=O)(CCCCc1ccccc1)CC(=O)N1C[C@H](C2CCCCC2)C[C@H]1C(=O)O)C(C)C (some centres undefined)	0.42 °C	-1.88 °C
CCN(CC)C/C=C/C(=O)Nc1cc2c(Nc3ccc(F)c(Cl)c3)ncnc2cc1OCC1CC1	1.12 °C	-0.42 °C
CCN(C(=O)CO)[C@H]1CN(/C(=N\C#N)Nc2cccc(OC(F)F)c2)N=C1c1ccc(Cl)c(Cl)c1	0.47 °C	-1.11 °C
Clc1ccccc1C(c1ccccc1)(c1ccccc1)n1ccnc1	0.47 °C	-5.05 °C
Cn1cncc1-c1cn(-c2cccc(C(=O)Nc3cccc(C(F)(F)F)c3)c2)nn1	-9.32 °C	-1.49 °C
O=C1CCCN1CCNc1nc(Nc2ccc(Cl)c(Cl)c2)ncc1C(F)(F)F	4.63 °C	-1.78 °C
CC(C)c1cnc(NC(=O)Cc2ccccc2)s1	0.87 °C	0.11 °C
CSc1ccc(C(=O)/C=C/c2cc(C)c(OC(C)(C)C(=O)O)c(C)c2)cc1	1.12 °C	-1.39 °C
Cc1cc(C2CCCNC2)ccc1Nc1ncc(Br)c(NCc2cccc3c2C(C)(C)C(=O)N3)n1 (centres undefined)	2.52 °C	-1.21 °C

Structure (SMILES)	ΔTm [1]	ΔTm (Peregrin (Homo sapiens))
Cn1ccc(Cn2cnc(-c3ccc(F)cc3)c2-c2ccnc3[nH]ccc23)n1	0.54 °C	-1.13 °C
CC(C)Oc1ccc(Cc2ccc(NC3=NCCN3)cc2)cc1	0.39 °C	-3.24 °C
CCOC(=O)c1ccc(CN(Cc2ccc(-c3cccc(S(C)(=O)=O)c3)cc2)S(=O)(=O)c2c(C)cc(C)cc2C)o1	-1.46 °C	-3.02 °C
COC(=O)c1ccc2c(c1)NC(=O)/C2=C(\Nc1ccc(-c2nccn2C)cc1)c1ccccc1	6.61 °C	-1.36 °C
COc1cc(Oc2nc(-c3ccc(NC(=O)C4CCOC4)cc3)nn3c(C)nc(C)c23)cc(OC)c1OC (centres undefined)	1.34 °C	-1.59 °C
O=C(O)[C@]1(Cc2cccc(Nc3nccs3)n2)CC[C@@H](Oc2cccc(Cl)c2F)CC1	6.09 °C	-3.28 °C
O=C(O)c1cc2cc(Cc3cccnc3)ccc2o1	0.96 °C	-2.16 °C
CC1(C)Cc2nc(C3CCCC3)c([C@@H](F)c3ccc(C(F)(F)F)cc3)c(C3CCCCC3)c2[C@@H](O)C1	1.5 °C	-1.29 °C
O=C1Nc2ccc(I)cc2/C1=C/c1cc(Br)c(O)c(Br)c1	0.51 °C	-0.58 °C
CCOC(=O)Nc1ccc2c(c1)N(C(=O)CN(CC)CC)c1ccccc1CC2	0.66 °C	-1.21 °C
Cc1nc2ccc(Cl)cc2c(-c2ccccc2)c1CC(=O)O	0.68 °C	-3.32 °C
Cc1cc(SCc2sc(-c3ccc(C(F)(F)F)cc3)nc2C)ccc1OCC(=O)O	1.04 °C	-1.59 °C
CCc1nc(-c2cccc(C)c2)c(-c2ccncc2)s1	0.65 °C	-0.75 °C
Cc1cc(C)nc(Nc2ncc(C(=O)NCCc3c(C)[nH]c4ccccc34)cn2)c1	0.85 °C	-2.14 °C
NS(=O)(=O)c1ccc(Nc2nc(OCC3CCCCC3)c3nc[nH]c3n2)cc1	0.37 °C	1.2 °C
O=C(O)Cc1ccc(CCNS(=O)(=O)c2ccc(Cl)cc2)cc1	0.43 °C	-2.91 °C
CN(C1CCc2c(c3ccccc3n2CC(=O)O)C1)S(=O)(=O)c1ccc(F)cc1 (centres undefined)	0.46 °C	-2.54 °C
CC(C)c1nc2c(c3c1[C@@H](c1ccc(C(F)(F)F)cc1)OC31CCOCC1)[C@@H](O)CC(C)(C)C2	0.98 °C	-3.83 °C
Cn1cc(-c2cnc3ccc4ccc(CS(=O)(=O)NCc5ccccn5)cc4c(=O)c3c2)cn1	3.77 °C	-1.66 °C

More lines, now with the values ahead:

ΔTm [1]	ΔTm (Peregrin (Homo sapiens))	Structure (SMILES)
0.5 °C	-0.45 °C	COc1cc(C(=O)O)ncc1C#Cc1ccccc1NS(=O)(=O)c1cccc2c(N(C)C)ccnc12
1 °C	-1.73 °C	Cc1cc2c(-c3ccco3)cnc(N[C@H]3CCN(C)C[C@@H]3C(=O)NC3CCCCC3)c2[nH]c1=O
0.59 °C	-1.12 °C	CN1CCN(c2ccnc(NCCc3ccccc3)n2)CC1
0.45 °C and 3.99 °C	-2.51 °C and -1.17 °C	Cc1c(NC(=O)COc2ccc(Cl)cc2C(=O)c2cc(F)cc(C(F)(F)F)c2)ccc(C(=O)O)c1F
0.62 °C	-2.08 °C	CNC(=O)COc1cc2cc(Nc3nc(N4C[C@H](C)C[C@H](C)C4)ncc3Cl)ccc2n(C)c1=O
2.76 °C	-1.78 °C	CC(C)(O)[C@H](F)CN1Cc2cc(NC(=O)c3cnn4cccnc34)c(N3CCOCC3)cc2C1=O
1.03 °C	-2.12 °C	Cn1c(C2(NC(=O)c3ccc(NCC4CCCCC4)nc3)CCC2)nc2ccc(/C=C/C(=O)O)cc21
0.35 °C	-3.41 °C	Cc1cc2nc(N3CCC(C(=O)NC4CCCC4)CC3)n(C(C)C)c2cc1C
0.98 °C and 0.62 °C	-2.28 °C and -0.95 °C	CC[C@H](CC(=O)O)n1c(=O)c2ncccc2n(Cc2cn(C)c3cc(C)cc(C)c23)c1=O
2.14 °C	-1.1 °C	N#Cc1cccc(-c2c[nH]c3ncnc(N4CCOCC4)c23)c1
0.65 °C	-0.69 °C	CNC(=O)c1cc(C(=O)N[C@H]2[C@@H]3COC[C@@H]32)cc2c1O[C@H](CF)[C@H]2c1ccccc1
3.32 °C	3.75 °C	C[C@@]1(Cc2ccc(C#N)cc2)C(=O)N(c2cc(Cl)cc(Cl)c2)c2ncc(C(=O)NC3(c4nc(C5CCC5)no4)CC3)n21
1.04 °C	-1.22 °C	Cc1cc(NC(=O)c2cccc(NC(=O)/C=C/CN(C)C)c2)ccc1Nc1nccc(-c2cccnc2)n1
0.91 °C	-1.9 °C	Cn1cc(C(=O)O)c2ccc(N3CCC(OCc4c(-c5c(Cl)cccc5Cl)noc4C4CC4)CC3)cc21
8.93 °C	-3.64 °C	COc1ccc(N(C(=O)Nc2c(C)cccc2C)c2cc(Nc3ccc(N4CCN(C)CC4)cc3)ncn2)c(OC)c1
0.45 °C	0.2 °C	O=C(Nc1snnc1C(=O)Nc1ccc(N2CCCC2)cc1)c1cncc(C(F)(F)F)c1
2.34 °C	-1.39 °C	Cc1cc(-c2ccnc(Nc3cnn(C)c3)n2)ccc1CNC(=O)N1CC(OC(C)C)C1
0.5 °C	-0.88 °C	CN1CCC(F)(Cn2cnc(-c3ccc(F)cn3)c2-c2ccnc3[nH]ccc23)CC1
0.47 °C	-1.76 °C	CCN(C)C(=O)c1ccc2c(c1)NC(=O)/C2=C(\NC1CCN(C)CC1)c1ccccc1
0.03 °C	-1.75 °C	O=C(O)c1ccnc(N2CC(O)(c3ccc(OCc4c(-c5c(Cl)cccc5Cl)noc4C4CC4)cc3Cl)C2)c1
0.73 °C	0.36 °C	CN1C(=O)Cc2ccc(-c3ccc(C[C@@H](C#N)NC(=O)[C@H]4N[C@@H]5CC[C@H]4C5)c(F)c3)cc21
1.13 °C	-1.89 °C	CCN1C(=O)/C(=C(\NC2CCN(C)CC2)c2ccc3c(c2)OCO3)c2cc(C(C)=O)ccc21
0.68 °C	-3.14 °C	Cc1ccc(NC(=O)c2ccc(CN3CC[C@H](N(C)C)C3)c(C(F)(F)F)c2)cc1Nc1nccc(-c2cncnc2)n1
2.95 °C	0.08 °C	Cc1ncc(C(=O)Nc2cc(C(C)(C)C)on2)cc1-n1cc(-c2cnn(C)c2C)nn1
